In patent publication US6348482B1, “Catechols as antimicrobial agents” (Merck & Co., Inc., priority 1999, dated 2002):
Converted amounts (≈) assume the structure as drawn.

Columns and labels:
[1] = molecular target: aminoacyl-tRNA synthetases (aaRS); test: aaRS charging and trichloroacetic acid precipitation assay (IC50), Sa enzyme; format: biochemical; settings: aaRS from Sa; 20 min preincubation at 25 C
Description: (§1) IC50 determinations for the aminoacyl-tRNA synthetases (aaRS) isolated from pathogen or HeLa cells were carried out using a modification of the aaRS charging and trichloroacetic acid precipitation assay described previously (see examples: D. Kern et. al., Biochemie, 61, 1257-1272 (1979) and J. Gilbart et. al. Antimicrobial Agents and Chemotherapy, 37(1), 32-38 (1993)). The aaRS enzymes were prepared via standard cloning and expression methods and partially purified or partially purified from pathogen and HeLa cell extracts. The activity of each aaRS enzyme was standardized as trichloroacetic acid precipitable counts (cpm) obtained at 10 minutes reaction time at Km concentrations of substrates. For practical purposes, the minimal acceptable value is approximately 2000 cpm per 10 minute reaction.
(§2) Preincubations for IC50 determinations were initiated by incubating partially purified aaRS extracts in 50 mM HEPES (pH 7.5), 0.1 mM EDTA, 0.05 mg/ml bovine serum albumin, 10 mM dithiothreitol and 2.5% dimethyl sulfoxide with and without test compound (e.g. compound of the invention (preferably a compound of Formula I)) in a final volume of 20 microliters in a microtiter plate for 20 minutes at 25 C. Test compounds were typically present as serial dilutions in concentration ranges of 0.35 nM to 35 μM. Test compound solutions were prepared by dissolving test compound in 100% dimethyl sulfoxide and diluting to the final concentration with 50 mM HEPES, pH 7.5. IC50 determinations were typically performed in duplicate with each experiment containing 4-8 concentrations of inhibitor along with two no inhibitor controls.
(§3) IC50 incubations were initiated by supplementing the preincubation mixture to a final assay concentration of 10 mM MgCl2, 30 mM KCl, 10 mM KF, 50 mM HEPES (pH 7.5), 20 μM-500 mM ATP, 2-20 μM [^3H] amino acid, and 90-180 μM crude tRNA in a final volume of 35 microliters. The reaction was incubated at 25° C. for 5-20 minutes. At specified time points a 15 microliter aliquot was removed and added to a well of a Millipore filtration plate (Multiscreen-FB, MAFB NOB 10) containing 100 microliters of cold 5% (wt/vol) trichloroacetic acid. Trichloroacetic acid precipitable material was collected by filtration on Millipore Multiscreen filtration station, washed twice with cold 5% trichloroacetic acid, twice with water, and dried. Plates were typically allowed to air dry for several hours or they were baked at 50° C. in a vacuum oven for 30 minutes. The radioactivity on the dried plates was quantitated by the addition of Packard Microscint-20 to the wells and counting with a Packard TopCount scintillation counter.
(§4) Inhibitor activity was typically reported as a percentage of the control aaRS activity. The IC50 value was determined by plotting per cent activity versus compound concentration in the assay and identifying the concentration at which 50% of the activity was remaining.

[2] = molecular target: aminoacyl-tRNA synthetases (aaRS); test: aaRS charging and trichloroacetic acid precipitation assay (IC50), Ef enzyme; format: biochemical; settings: aaRS from Ef; 20 min preincubation at 25 C
Description: as §1, §2, §3, §4

Sa = test: Whole cell antimicrobial screen (MIC), Sa; format: cell-based; settings: overnight incubation, 2-fold dilutions, read-out: MIC (μg/mL) Sa
Description: (§5) Compounds were tested for antimicrobial activity against a panel of organisms according to standard procedures described by the National Committee for Clinical Laboratory Standards (NCCLS document M7-A3, Vol. 13, No. 25, 1993/NCCLS document M27-P, Vol. 12, No. 25, 1992). Compounds were dissolved in 100% DMSO and were diluted to the final reaction concentration (0.1 μg/ml-500 μg/ml) in microbial growth media. In all cases the final concentration of DMSO incubated with cells is less than or equal to 1%. For minimum inhibitory concentration (MIC) calculations, 2-fold dilutions of compounds were added to wells of a microtiter plate containing 1×10^5 bacteria or fungal cells in a final volume of 200 lambda of an appropriate media (Mueller-Hinton Broth; Haemophilus Test Media; Mueller-Hinton Broth+5% Sheep Blood; or […]). Plates were incubated overnight at an appropriate temperature (30° C.-37° C.) and optical densities (measure of cell growth) were measured using a commercial plate reader. The MIC value is defined as the lowest compound concentration inhibiting growth of the test organism.

Efs = test: Whole cell antimicrobial screen (MIC), Efs; format: cell-based; settings: overnight incubation, 2-fold dilutions, read-out: MIC (μg/mL) Efs
Description: as §5

Efm = test: Whole cell antimicrobial screen (MIC), Efm; format: cell-based; settings: overnight incubation, 2-fold dilutions, read-out: MIC (μg/mL) Efm
Description: as §5

Row | Compound | IC50 [1] [nM] | IC50 [2] [nM] | MIC (Sa) [µg/mL] | MIC (Efs) [µg/mL] | MIC (Efm) [µg/mL]
1 | CS(=O)(=O)NC(=O)c1ccc(OCc2nc3ccccc3[nH]2)c(OCc2ccc(Cl)cc2Cl)c1 [130,971] | < 500 | < 500 | < 100 | 100 (≈ 192 µM) | 100 (≈ 192 µM)
2 | O=C(NC(CO)C(=O)O)c1ccc(OCc2nc3ccccc3[nH]2)c(OCc2ccc(Cl)cc2Cl)c1 (stereo not shown) [130,970] | < 500 | < 500 | > 100 | < 100 | 100 (≈ 189 µM)
3 | O=C(NC(CO)C(=O)O)c1ccc(OCc2ccc(Cl)cc2Cl)c(OCc2nc3ccccc3[nH]2)c1 (stereo not shown) [130,968] | < 500 | < 500 | > 100 | > 100 | > 100
4 | Clc1ccc(COc2ccccc2OCc2nc3ccccc3[nH]2)c(Cl)c1 [126,419] | < 500 | < 500 | > 100 | > 100 | > 100
5 | O=C(O)Cc1ccc(OCc2nc3ccccc3[nH]2)c(OCc2ccc(Cl)cc2Cl)c1 [130,976] | < 500 | < 500 | < 10 | < 10 | < 10
